Data as given in US20100036088A1, “Selective poly-N-substituted glycine antibiotics” (priority 2008, published 2010).
Square brackets hold non-standard residues; d marks the D form. Peptide text beside a SMILES is read from it. Gly(N-CH2CH2-imidazol-4-yl) = O=C(O)CNCCc1c[nH]cn1; Nspe = C[C@H](NCC(=O)O)c1ccccc1; Nlys = NCCCCNCC(=O)O

Assays:
human erythrocytes = assay: Hemolysis assay; format: cell-based
Outline: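 Peptoid serial dilutions in PBS pH 7.4 were combined with an equal volume of 20 vol % washed human red cells (heparinised blood) for 1 h at 37 °C. After dilution and pelleting at 1200 g, released haemoglobin in supernatant was read at A350, scaled between PBS and 0.2 vol % Triton X-100 controls.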

E. coli (ATCC 35218) = format: cell-based; conditions: ATCC 35218
Outline: (§1)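 MICs by broth microdilution per CLSI M7-A6 in cation-adjusted Mueller-Hinton broth, using 2:1 serial dilutions of peptoid and a bacterial inoculum of 1×10^6 CFU/mL. Values reproducible over three experiments, each with two parallel trials.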

B. subtilis (ATCC 6633) = format: cell-based; conditions: ATCC 6633
Outline: as §1

[1] = tested on: Staphyloccus aureus (ATCC #25923); assay: Murine intraperitoneal infection model; format: in vivo; conditions: mouse, 4 mg/kg I.P.; eleven mice treated with 1-Nhis6,12
Experimental: Using a murine peritoneal injection mouse model, the ability of peptoids to treat infection was evaluated in vivo. The results from three separate studies of peptoid 1 and two of peptoid 1-Nhis6,12 against saline treated controls are shown in FIG. 7. The horizontal line represents the geometric mean of each population.
Murine intraperitoneal infection model. Bacteria was prepared by inoculating 5 mL of MHB with a single colony of Staphyloccus aureus (ATCC #25923) from a freshly streaked plate and grown overnight at 37 C. The following morning, the bacteria was subcultured by diluting 1/3 in MHB and grown for approximately 1.5 hours. The bacteria were then diluted 10-fold in a 5% mucin in PBS solution and thoroughly mixed. A sample was reserved to later determine the amount of bacteria the mice received.
Mice were weighed, marked, and injected I.P. with 200 uL of S. aureus inoculum. Four hours post infection, mice were treated I.P. with 4 mg/kg peptoid (˜100 ug per mouse). The infection is allowed to proceed overnight. Mice were euthanized by CO2 asphyxiation after 24 hours, and the peritoneal cavity was exposed and lavaged with 5 mL PBS. The lavage was mixed and reserved on ice until plating. […] Colonies were counted the following day, and the CFU/ml of each sample was calculated. […]

E. coli JM109 = format: cell-based
From the text: (§2) An initial set of 15 ampetoid analogs was synthesized to determine whether peptoids are affected by structural and sequence modifications in a manner consistent with AMP activities. The designs for ampetoids in this library were derived from two antibacterial and selective amphipathic dodecamers, 1 and 2. Peptoid 1 [H-(Nlys-Nspe-Nspe)4—NH2] is composed of 2/3 Nspe, the peptoid analog of phenylalanine, and 1/3 Nlys, the peptoid analog of lysine (see FIG. 1 for the structures of representative peptoid monomers and corresponding N-substituents). Peptoid 2 [H-(Nlys-Nssb-Nspe)4—NH2] contains 1/3 isoleucine-like Nssb monomers in place of Nspe. The variant sequences were designed to effect changes in chirality, length, hydrophobicity, charge, and amphipathicity. All of these compounds were tested for antibacterial activity against representative BSL1 Gram-negative (E. coli JM109) and Gram-positive (B. subtilis BR151) bacterial strains. As an initial measure of selectivity, the lytic activity of the peptoids was determined against human erythrocytes. Table 1 summarizes the sequences synthesized, the solvent composition at RP-HPLC elution as a relative measure of molecular hydrophobicity, and antibacterial and hemolytic activities.
(§3) Antibacterial assays. MICs were determined according to CLSI M7-A6 protocols in a 96-well microtiter plate. In test wells, 50 μL bacterial inoculum (5×10^5 CFU/ml) in Mueller-Hinton broth (MHB) was added to 50 μL peptoid solution in MHB (prepared by 1:2 serial dilutions). Positive controls contained 50 μL inoculum and 50 μL MHB without peptoid. […] MIC values reported were reproducible between three independent experimental replicates, each consisting of two parallel trials. Broad-spectrum antimicrobial susceptibility testing was performed against BSL2 pathogens by Nova Biologicals, Inc. (Conroe, Tex.).

[2] = tested on: A549 lung epithelial cells; assay: MTS assay, metabolic inhibition
Experimental: The biocompatibility of selected oligomers with A549 lung epithelial cells was evaluated using the MTS [3-(4,5-dimethylthiazol-2-yl)-5-(3-carboxymethoxyphenyl)-2-(4-sulfophenyl)-2H-tetrazolium] assay.
MTS Assays. A549 carcinoma-derived lung epithelial cells (ATTC CCL-185) were cultured in Ham's F12K media (ATTC, Manassas, Va.). A peptoid solution plate (100 μL/well) was prepared by serial dilution of aqueous peptoid stocks in media. Peptoid solutions were transferred onto a 96-well plate of day-old cell monolayers containing 100 μL/well media with ˜5000 cells/well. MTS reagent (Promega Corporation, Madison, Wis.) (40 μL/well) was added to each well and the plate was incubated at 37° C. for 3 h, after which absorbance at 490 nm was determined. Percent inhibition was determined as [1−(A−Atest blank)/(Acontrol−Ablank)]×100, where A is the absorbance of the test well and Acontrol the average absorbance of wells with cells exposed to media and MTS (no peptoid). Atest blank (media, MTS, and peptoid) and Ablank (media and MTS) were background absorbances measured in the absence of cells. The average of six replicates are reported, and error bars show one standard deviation.

B. subtilis BR151 = format: cell-based; conditions: Table 1
From the text: as §2, §3

Row | Structure (SMILES) | HD10 (human erythrocytes) | HD50 (human erythrocytes) | HD10 (10% hemolytic dose) (human erythrocytes; red cells of human, 1 h) | HD50 (50% hemolytic dose) (human erythrocytes; red cells of human, 1 h) | E. coli MIC (E. coli (ATCC 35218)) [µM] | B. subtilis MIC (B. subtilis (ATCC 6633)) [µM] | mice that died prematurely during the exposure period [1] | MICs (E. coli JM109; JM109) [µM] | ID10 relative to that of pexiganan [2] [times] | HD10 (10% hemolytic dose) (human erythrocytes; Table 1, human erythrocytes) [µM] | HD50 (50% hemolytic dose) (human erythrocytes; Table 1, human erythrocytes) [µM] | B. subtilis MIC (B. subtilis BR151) [µM] | E. coli MIC (E. coli JM109; Table 1, E. coli JM109) [µM] | cytotoxicity (in words) ([2]; A549 cells, MTS assay, FIG. 2)
1 | C[C@@H](c1ccccc1)N(CC(=O)N(CCc1cnc[nH]1)CC(=O)N(CCCCN)CC(=O)N(CC(=O)N(CC(=O)N(CCCCN)CC(=O)N(CC(=O)N(CCc1cnc[nH]1)CC(N)=O)[C@@H](C)c1ccccc1)[C@@H](C)c1ccccc1)[C@@H](C)c1ccccc1)C(=O)CN(CCCCN)C(=O)CN(C(=O)CN(C(=O)CNCCCCN)[C@@H](C)c1ccccc1)[C@@H](C)c1ccccc1 [1-Nhis6,12] (H-[Nlys][Nspe][Nspe][Nlys][Nspe][Gly(N-CH2CH2-imidazol-4-yl)][Nlys][Nspe][Nspe][Nlys][Nspe][Gly(N-CH2CH2-imidazol-4-yl)]-NH2) | >110/>110 μM | >110/>110 μM | >110/>110 μM | >110/>110 μM | >50 | 1.6 | eight | < 7 | 20 | – | – | – | – | –
2 | C[C@H](c1ccccc1)N(CC(N)=O)C(=O)CN(C(=O)CN(CCCCN)C(=O)CN(C(=O)CN(C(=O)CN(CCCCN)C(=O)CN(C(=O)CN(C(=O)CN(CCCCN)C(=O)CN(C(=O)CN(C(=O)CNCCCCN)[C@H](C)c1ccccc1)[C@H](C)c1ccccc1)[C@H](C)c1ccccc1)[C@H](C)c1ccccc1)[C@H](C)c1ccccc1)[C@H](C)c1ccccc1)[C@H](C)c1ccccc1 [1enantiomer] | – | – | – | – | – | – | – | – | – | 16 | 86 | 0.88 | 3.5 | –
3 | C[C@@H](c1ccccc1)N(CC(N)=O)C(=O)CN(C(=O)CN(CCCCN)C(=O)CN(C(=O)CN(C(=O)CN(CCCCN)C(=O)CN(C(=O)CN(C(=O)CN(CCCCN)C(=O)CN(C(=O)CN(C(=O)CN(CCCCN)C(=O)CN(C(=O)CN(C(=O)CNCCCCN)[C@@H](C)c1ccccc1)[C@@H](C)c1ccccc1)[C@@H](C)c1ccccc1)[C@@H](C)c1ccccc1)[C@@H](C)c1ccccc1)[C@@H](C)c1ccccc1)[C@@H](C)c1ccccc1)[C@@H](C)c1ccccc1)[C@@H](C)c1ccccc1 [115 mer, H-(Nlys-Nspe-Nspe)5-NH2] | – | – | 3 µM | 19 µM | – | – | – | – | – | – | – | – | – | no worse than pexiganan
